The source of these data is US20250161419A1, “SERPIN PEPTIDES AND METHODS OF USING THE SAME” (SERPIN PHARMA, LLC, priority 2022, published 2025).

One assay deals with phospho-ERK1/2. The assay can be described thus: Cell signaling analysis in PC12 cells, immunoblot of phospho-ERK1/2. Type of assay: cell-based, rat. On the procedure:
Cell signaling analysis: Rat PC12 cells were purchased from ATCC (CRL-1721). PC12 cells were maintained in high glucose DMEM (Gibco, USA) containing 10% heat-inactivated FBS (Gibco, USA), 5% HyClone heat-inactivated horse serum (Cytiva, USA), penicillin (100 units/ml) and streptomycin ([…]) in 6-well plates that were pre-coated with 0.01 mg/ml type IV collagen (Sigma-Aldrich, St. Louis, MO, USA). Cells were transferred to serum-free medium (SFM) 4 h prior to adding effectors, and then treated with SP163M (2.4, 24 or 240 nM); EI-tPA (12 nM), NGF (0.36 nM), or vehicle (PBS) for 10 min. In some cases, cells were pre-incubated with the competitive antagonist of LRP1, GST-RAP (150 nM) for 15 min or electroporated using the Rat Neuron Nucleofector Amaxa Kit (Lonza Biosciences) and incubated with siRNA to silence LRP1 expression (siLRP1; M-094191-01-0010, Dharmacon) for 48 h. Control cells were transfected with non-targeting control (NTC) siRNA (NTC; D-001810-10-05, Dharmacon). Cells were rinsed with ice-cold PBS and proteins were extracted in RIPA buffer (20 mM sodium phosphate, 150 mM NaCl, pH 7.4, 1% Triton X-100, 0.5% sodium deoxycholate, 0.1% SDS) supplemented with protease and phosphatase inhibitors (Roche Diagnostics, USA). After 30 min on ice, lysates were centrifuged at 15000×g for 5 min, supernatant collected and stored at −20° C. Equal amounts of protein from cell lysates (20 μg), as determined by BCA Protein Assay (ThermoFisher Scientific, Waltham, MA, USA), were subjected to 10% SDS-PAGE and electro-transferred to nitrocellulose membranes. The membranes were blocked with 5% nonfat dried milk and then incubated with primary anti-phospho-AKT (Cell Signaling Technology, Danvers, MA, USA; cat #9271S; 1:1000), anti-phospho-ERK1/2 (Cell Signaling Technology, Danvers, MA, USA; cat #9101S; 1:1000), anti-LRP1 (Cell Signaling Technology, Danvers, MA, USA; cat #64099S; 1:1000) or anti total-ERK1/2 (Cell Signaling Technology, Danvers, MA, USA; cat #91012S; 1:1000). Immunoblots were developed using Radiance, Radiance Q, and Radiance Plus chemiluminescent substrates and imaged using a BioRad ChemiDoc Imaging System (Bio-Rad, Hercules, CA, USA).
In general terms: Immunoblotting shows a protein as a band on a membrane.

Another assay has as its system GAP-43 mRNA. As to the kind of experiment: RT-qPCR of GAP-43 mRNA in primary cultured adult DRG neurons. Format: cell-based, rat. Conditions: 240 nM, 24 h, vs vehicle. On the technique in general: Real-time PCR tracks product formation cycle by cycle.
Assay [1] has as its system MC903 induced atopic dermatitis and pruritis in mice. The assay can be described thus: MC903 (calcipotriol) induced AD-like inflammatory skin model, topical treatment: dermatitis score, ear volume, scratching. Type of assay: in vivo, mouse. The protocol: SP16 (in 70% ethanol) was applied topically to the ears on the days of the MC903 applications (MC903+SP16). Drug vehicle (70% EtOH) was applied to control animals (MC903) and normal control animals (NC) received EtOH in place of MC903. In-life parameters: Dermatitis score (FIG. 16A) and ear volume (FIG. 16B) measured on days 0, 3, 7, 9, 11 and 14. […] Clinical Dermatitis Score (score 0-4 for each parameter)-erythema, scale/dryness, edema, excoriation/erosion (total score 0-16).
Mice were treated with SP16 in 70% EtOH (MC903+SP16) or drug vehicle (MC903). Normal control (NC) mice were treated with EtOH only. Ears were measured for PAR2 protein expression through western blot analysis (quantitative analysis after normalization to beta-actin shown) (n=3-5). TSLP was measured in both the ears and serum by ELISA (N=3-5). Scratching was assessed over a 3 minute period after a 5-minute acclimatization period and the number of scratches are shown (n=3). IL-4 was measured in ear lysate via ELISA (N=3-5).

The subject of the next assay is TSLP. As to the kind of experiment: Poly I:C-induced TSLP production by SPINK7 knockout EPC2 cells (ELISA). Conditions: Poly I:C 5 μg/ml, 8 hours. Type of assay: cell-based, human. On the procedure:
(§1) FIG. 12A: Poly I:C-induced TSLP production by SPINK7 knockout EPC2 cells (Human esophageal epithelial cells). SPINK7 KO cells and control cells were plated in high calcium and high density, for 48 hours before being treated with SP16 or 7G and Poly I:C (5 μg/ml, or untreated) for 8 hours. TSLP production in the supernatant was measured by ELISA. FIG. 12B: primary esophageal epithelial cells (EPC2) were treated with SP16 and then stimulated with IL-13, a TH2 response mediated cytokine, to induce CCL26.
(§2) SP16 reduces several key cytokines involved in allergic responses. Upon knockout of SPINK7, esophageal epithelial cells release exacerbated levels of TSLP. TSLP is a key mediator of immune cell responses upon activation to an insult such as allergens.
A general note: ELISA stands for enzyme-linked immunosorbent assay.

The test system of a further assay is CCL26. The assay can be described thus: CCL26 release by esophageal epithelial cells (EPC2). Type of assay: cell-based, human. On the procedure: as §1, §2

With “VKFNKPFVFLMIEQNTK (SP16 peptide core sequence including the LRP1 binding site; listed as Homo sapiens)”, the “activation of ERK1/2 over time” value with phospho-ERK1/2 (240 nM, 0-30 min) is “robustly activated ERK1/2 from 5 to 30 min”. Moreover, the “lowest concentration that activated phospho-ERK1/2” value in the assay on phospho-ERK1/2 (10 min, 0-240 nM) is given as 24 nM. In the assay on phospho-ERK1/2 (48 h after transfection), the “activation of ERK1/2 in cells transfected with NTC siRNA” value is given as “ERK1/2 was robustly activated”. Moreover, in the assay with GAP-43 mRNA, the “GAP-43 mRNA” value is “increased GAP-43 mRNA compared to vehicle-treated neurons”. The “disease (dermatitis score, ear volume)” value in assay [1] (topical solution (1%) in 70% ethanol, 14-day period, vs vehicle-treated mice) is on record as “significant improvement in disease vs. vehicle-treated mice”. For the same sequence, the “pruritis (number of scratches over 3 minutes)” value in assay [1] (topical, vs vehicle (MC903) treated mice) is “significantly reduces pruritis”. Moreover, in the assay on TSLP, the “Poly I:C mediated TSLP release” value was “effective in significantly reducing Poly 1:C mediated TSLP and CCL26 release”. In the assay with CCL26 (primary SPINK7 knockout esophageal cells), the “CCL26 release (text: Poly 1:C mediated)” value was “effective in significantly reducing Poly 1:C mediated TSLP and CCL26 release”. The “CCL26 release induced by IL-13” value with CCL26 (primary esophageal epithelial cells (EPC2), SP16 then IL-13) is given as “significantly reduced CCL26 release dose dependently”.
